Experiments:
Full-length human PRMT6 = molecular target: T1, Full-length human PRMT6 (Homo sapiens, UniProt Q96LA8); assay: PRMT6 biochemical assay (3H-SAM Flashplate, peptide substrate)
T1 construct: Flag-PRMT6-His was eluted with 200 ug/ml FLAG peptide in the same buffer; made in house; host or cells: HEK 293F cells (BacMam virus, pFastBacMam)
Procedure, shortened: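 Read-out is 3H-methylated histone H4 (36-50) peptide bound to streptavidin Flashplates after a cold-SAM stop. Baculovirus-expressed Flag-PRMT6-His met compound for 30 min at room temperature before SAM and peptide; Bicine pH 7.6 buffer. IC50 fitted to % inhibition normalized to SAH (min) and DMSO (max).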

[1] = molecular target: T2, Full-length human PRMT1 isoform 1 (Homo sapiens, UniProt Q99873); assay: PRMT1 biochemical assay (3H-SAM Flashplate, peptide substrate)
T2 construct: GST-tagged PRMT1; made in house; host or cells: High Five insect cells (baculovirus, pFastBacI)
T2 sequence (Q99873 with tags, fused parts or gaps): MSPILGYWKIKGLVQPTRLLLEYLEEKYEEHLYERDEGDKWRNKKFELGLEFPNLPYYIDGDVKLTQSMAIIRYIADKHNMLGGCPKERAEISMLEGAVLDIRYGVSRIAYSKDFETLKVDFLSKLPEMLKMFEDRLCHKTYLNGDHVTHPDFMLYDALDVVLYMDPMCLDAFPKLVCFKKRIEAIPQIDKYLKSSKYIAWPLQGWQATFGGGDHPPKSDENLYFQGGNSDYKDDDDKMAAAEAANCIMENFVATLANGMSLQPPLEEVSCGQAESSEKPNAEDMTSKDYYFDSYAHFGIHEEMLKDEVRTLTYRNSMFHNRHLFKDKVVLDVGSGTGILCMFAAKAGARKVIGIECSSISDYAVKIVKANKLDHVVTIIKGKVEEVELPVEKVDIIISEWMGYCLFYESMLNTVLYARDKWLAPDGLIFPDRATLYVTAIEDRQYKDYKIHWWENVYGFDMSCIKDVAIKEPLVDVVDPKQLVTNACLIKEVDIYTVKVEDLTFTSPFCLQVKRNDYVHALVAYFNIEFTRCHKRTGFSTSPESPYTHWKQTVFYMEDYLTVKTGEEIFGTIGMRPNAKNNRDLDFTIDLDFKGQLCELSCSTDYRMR
Procedure, shortened: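 Tritiated methyl transfer from 3H-SAM onto biotinylated peptide, captured on streptavidin Flashplates and counted. Baculovirus-expressed GST-PRMT1 and compound were preincubated 30 min at room temperature in Bicine buffer pH 7.6. Cold SAM at 300 uM final ended the reaction.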

T1 sequence (Q96LA8 with tags, fused parts or gaps): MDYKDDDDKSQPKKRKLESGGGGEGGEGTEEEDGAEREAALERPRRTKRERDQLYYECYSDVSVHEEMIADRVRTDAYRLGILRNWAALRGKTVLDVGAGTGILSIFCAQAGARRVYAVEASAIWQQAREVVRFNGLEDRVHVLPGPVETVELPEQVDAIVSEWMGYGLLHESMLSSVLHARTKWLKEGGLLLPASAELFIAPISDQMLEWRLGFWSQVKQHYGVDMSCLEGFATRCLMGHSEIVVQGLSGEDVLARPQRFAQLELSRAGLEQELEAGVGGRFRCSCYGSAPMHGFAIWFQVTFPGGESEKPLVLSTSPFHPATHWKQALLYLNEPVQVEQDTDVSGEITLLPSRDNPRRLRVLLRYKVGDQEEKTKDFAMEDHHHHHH

Compound: CC(C)CN1C(=O)COc2cc(-c3n[nH]cc3CN(C)CCN)ccc21 [Compound 193]
- IC50 (Full-length human PRMT6): 101 to 1000 nM
- IC50 [1]: < 100 nM

Compound: CN(CCN)Cc1c[nH]nc1-c1ccc(OCCO)cc1 [Compound 194]
- IC50 (Full-length human PRMT6): < 100 nM
- IC50 [1]: < 100 nM

Compound: CN(CCN)Cc1c[nH]nc1-c1ccc(OCCCO)cc1 [Compound 195]
- IC50 (Full-length human PRMT6): < 100 nM
- IC50 [1]: < 100 nM

Compound: CN(CCN)Cc1c[nH]nc1-c1ccc2c(c1)N(C)C(=O)CO2 [Compound 196]
- IC50 (Full-length human PRMT6): < 100 nM
- IC50 [1]: 101 to 1000 nM

Compound: CCNC(=O)c1cccc(-c2n[nH]cc2CN(C)CCN)c1 [Compound 197]
- IC50 (Full-length human PRMT6): < 100 nM
- IC50 [1]: 101 to 1000 nM

Compound: CCN(C)C(=O)c1cccc(-c2n[nH]cc2CN(C)CCN)c1 [Compound 198]
- IC50 (Full-length human PRMT6): 101 to 1000 nM
- IC50 [1]: 1010 to 3000 nM

Compound: Cc1cc(-c2n[nH]cc2CN(C)CCN)cc(C)c1OC(C)C [Compound 199, N^1-((3-(4-isopropoxy-3,5-dimethylphenyl)-1H-pyrazol-4-yl)methyl)-N^1-methylethane-1,2-diamine]
- IC50 (Full-length human PRMT6): 101 to 1000 nM
- IC50 [1]: < 100 nM

Compound: CN(CCN)Cc1c[nH]nc1-c1ccc(Oc2ccccc2)c(C#N)c1 [Compound 202]
- IC50 (Full-length human PRMT6): < 100 nM
- IC50 [1]: < 100 nM

Compound: CN(CCN)Cc1n[nH]cc1-c1ccc(Oc2ccccc2)cc1 [Compound 203]
- IC50 (Full-length human PRMT6): < 100 nM
- IC50 [1]: < 100 nM

Compound: CNCCN(C)Cc1n[nH]cc1-c1ccc(Oc2ccccc2)cc1 [Compound 204]
- IC50 (Full-length human PRMT6): < 100 nM
- IC50 [1]: < 100 nM

Compound: CN(CCN)Cc1c[nH]nc1-c1ccc(Oc2cccc(F)c2)cc1 [Compound 205]
- IC50 (Full-length human PRMT6): < 100 nM
- IC50 [1]: < 100 nM

Compound: CNCCN(C)Cc1cn(C)nc1-c1ccc(OC(C)C)c(Cl)c1 [Compound 206]
- IC50 (Full-length human PRMT6): < 100 nM
- IC50 [1]: < 100 nM

Compound: CNCCN(C)Cc1cn(C)nc1-c1ccc(Oc2ccccc2)cc1 [Compound 207]
- IC50 (Full-length human PRMT6): < 100 nM
- IC50 [1]: < 100 nM

Compound: CNCCN(C)Cc1cnn(C)c1-c1ccc(Oc2ccccc2)cc1 [Compound 208]
- IC50 (Full-length human PRMT6): < 100 nM
- IC50 [1]: < 100 nM

Compound: CNCCN(C)Cc1c[nH]nc1-c1ccc(OCCCOC)cc1 [Compound 209]
- IC50 (Full-length human PRMT6): < 100 nM
- IC50 [1]: < 100 nM

Compound: CNCCN(C)Cc1n[nH]cc1-c1ccc(OC(C)C)c(F)c1 [Compound 210]
- IC50 (Full-length human PRMT6): < 100 nM
- IC50 [1]: < 100 nM

Compound: CC(C)Oc1ccc(-c2c[nH]nc2CN(C)CCN)cc1Cl [Compound 211]
- IC50 (Full-length human PRMT6): < 100 nM
- IC50 [1]: < 100 nM

Compound: CNCCN(C)Cc1n[nH]cc1-c1ccc(OC(C)C)c(Cl)c1 [Compound 212]
- IC50 (Full-length human PRMT6): < 100 nM
- IC50 [1]: < 100 nM

Compound: CCn1cc(CN(C)CCNC)c(-c2ccc(OC(C)C)cc2)n1 [Compound 213]
- IC50 (Full-length human PRMT6): < 100 nM
- IC50 [1]: < 100 nM

Compound: CNCCN(C)Cc1cn(C2CCCC2)nc1-c1ccc(OC(C)C)cc1 [Compound 214]
- IC50 (Full-length human PRMT6): 101 to 1000 nM
- IC50 [1]: < 100 nM

Compound: CNCCN(C)Cc1cn(C2CCOC2)nc1-c1ccc(OC(C)C)cc1 (stereo not shown) [Compound 215]
- IC50 (Full-length human PRMT6): 101 to 1000 nM
- IC50 [1]: < 100 nM

Compound: CNCCN(C)Cc1cnn(C2CCOC2)c1-c1ccc(OC(C)C)cc1 (stereo not shown) [Compound 216]
- IC50 (Full-length human PRMT6): < 100 nM
- IC50 [1]: < 100 nM

Compound: CNCCN(C)Cc1cn(Cc2ccccc2)nc1-c1ccc(OC(C)C)cc1 [Compound 217]
- IC50 (Full-length human PRMT6): < 100 nM
- IC50 [1]: < 100 nM

Compound: C=CCn1cc(CN(C)CCNC)c(-c2ccc(OC(C)C)cc2)n1 [Compound 218]
- IC50 (Full-length human PRMT6): 101 to 1000 nM
- IC50 [1]: < 100 nM

Compound: C=CCn1ncc(CN(C)CCNC)c1-c1ccc(OC(C)C)cc1 [Compound 219]
- IC50 (Full-length human PRMT6): < 100 nM
- IC50 [1]: < 100 nM

Compound: CNCCN(C)Cc1c[nH]nc1-c1ccc(Oc2ccccc2)c(C#N)c1 [Compound 221]
- IC50 (Full-length human PRMT6): < 100 nM
- IC50 [1]: < 100 nM

Compound: CN(CCN)Cc1c(-c2ccc(C#N)cc2)ncn1C [Compound 222]
- IC50 (Full-length human PRMT6): 1010 to 3000 nM
- IC50 [1]: 1010 to 3000 nM

Compound: CN(CCN)Cc1c[nH]nc1-c1ccc(Oc2ccccc2)c(F)c1 [Compound 224, N^1-((3-(3-fluoro-4-phenoxyphenyl)-1H-pyrazol-4-yl)methyl)-N^1-methylethane-1,2-diamine]
- IC50 (Full-length human PRMT6): < 100 nM
- IC50 [1]: < 100 nM

Compound: CN(CCN)Cc1c[nH]nc1-c1ccc(Oc2ccc(F)cc2)cc1 [Compound 225, N^1-((3-(4-(4-fluorophenoxy)phenyl)-1H-pyrazol-4-yl)methyl)-N^1-methylethane-1,2-diamine]
- IC50 (Full-length human PRMT6): < 100 nM
- IC50 [1]: < 100 nM

Compound: CN(CCN)Cc1c[nH]nc1-c1ccc(Oc2ccccc2)c(C(=O)N(C)C)c1 [Compound 226]
- IC50 (Full-length human PRMT6): < 100 nM
- IC50 [1]: < 100 nM

Compound: CNC(=O)c1cc(-c2n[nH]cc2CN(C)CCN)ccc1Oc1ccccc1 [Compound 227]
- IC50 (Full-length human PRMT6): < 100 nM
- IC50 [1]: < 100 nM

Compound: CNCCN(C)Cc1c[nH]nc1-c1ccc(OCCCOC)c(Cl)c1 [Compound 228]
- IC50 (Full-length human PRMT6): < 100 nM
- IC50 [1]: < 100 nM

Compound: CNCCN(C)Cc1cn(C)nc1-c1ccc(OC(C)C)cc1 [Compound 243, N1-((3-(4-isopropoxyphenyl)-1-methyl-1H-pyrazol-4-yl)methyl)-N1,N2-dimethylethane-1,2-diamine]
- IC50 (Full-length human PRMT6): 101 to 1000 nM
- IC50 [1]: < 100 nM

Compound: CNCCN(C)Cc1cn(Cc2cccnc2)nc1-c1ccc(OC(C)C)cc1 [Compound 246]
- IC50 (Full-length human PRMT6): 101 to 1000 nM
- IC50 [1]: < 100 nM

Compound: CNCCN(C)Cc1cn(Cc2ccccn2)nc1-c1ccc(OC(C)C)cc1 [Compound 247]
- IC50 (Full-length human PRMT6): 101 to 1000 nM
- IC50 [1]: 101 to 1000 nM
